# Measurements as given in paper PMC4014597 (PLoS ONE, 2014).
# Experiments:
# [1] = target: T1, human G9a-like protein (GLP) (Homo sapiens, UniProt Q9H9B1); assay: GLP assay (histone methylation inhibition); type: biochemical; conditions: 8 μM inhibitor; read-out: Percent of GLP inhibition
# T1 construct: catalytic SET domain (residues 734-1235; pXC758) were purified as described; made in house
# T1 sequence (Q9H9B1 765-1266): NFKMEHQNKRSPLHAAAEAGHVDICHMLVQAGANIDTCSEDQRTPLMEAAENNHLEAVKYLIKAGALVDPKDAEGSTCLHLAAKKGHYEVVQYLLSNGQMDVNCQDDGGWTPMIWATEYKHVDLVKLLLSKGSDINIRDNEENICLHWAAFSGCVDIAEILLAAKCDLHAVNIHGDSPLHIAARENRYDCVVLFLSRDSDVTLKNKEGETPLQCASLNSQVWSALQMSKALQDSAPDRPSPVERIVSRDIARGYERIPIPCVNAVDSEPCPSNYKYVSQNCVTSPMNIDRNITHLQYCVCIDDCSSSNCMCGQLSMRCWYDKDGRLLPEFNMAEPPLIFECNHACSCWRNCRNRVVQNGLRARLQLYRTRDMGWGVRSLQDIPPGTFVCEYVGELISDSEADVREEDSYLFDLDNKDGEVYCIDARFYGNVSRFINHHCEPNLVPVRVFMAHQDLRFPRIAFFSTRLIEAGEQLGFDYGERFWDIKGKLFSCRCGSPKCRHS
# Experimental: GLP Assay. Recombinant human G9a-like protein (GLP) C-terminal fragment containing both the ankyrin repeats and catalytic SET domain (residues 734-1235; pXC758) were purified as described. For histone methylation inhibition, the assay was performed in 20 μL reaction containing 4.6 mM [methyl-^3H]-AdoMet, 50 μg/mL histone from calf thymus (SIGMA), 10 μg/mL (0.17 μM) GLP, 100 mM KCl, 5 mM (DTT) and 50 mM Tris-HCl pH 8.5. GLP was pre-incubated with AdoMet and 8 µM inhibitors for 5 min at 30 °C before the addition of the histone substrate. After incubation (5 min), the reaction was terminated by the addition of 20% trichloroacetic acid (TCA, Fisher Scientific). The reaction mixture was spotted on GF/A paper circles (Whatman), washed three times with 3 mL of 10% TCA and once with 3 mL of ethanol. The dried circles were subjected to liquid-scintillation counting with Cytoscint scintillant.
# [2] = target: T2, C-terminal catalytic domain of human DNMT3A (hDNMT3A) (Homo sapiens, UniProt Q9Y6K1); assay: DNMT3A assay (restriction-based fluorescence assay); type: biochemical; conditions: for inhibition at 3.2 µM: 3.2 µM compound; for inhibition at 3.2 µM / inhibition at 10 µM / inhibition at 32 µM / inhibition at 100 µM: read-out: % inhibition ± SD hDNMT3A; for inhibition at 10 µM: 10 µM compound; for inhibition at 32 µM: 32 µM compound; for inhibition at 100 µM: 100 µM compound; for EC50: catalytic domain of hDNMT3A, means of at least three experiments
# T2 construct: catalytic domain of human DNMT3A (residues 623–908), produced as described; made in house
# T2 sequence (Q9Y6K1 627-912): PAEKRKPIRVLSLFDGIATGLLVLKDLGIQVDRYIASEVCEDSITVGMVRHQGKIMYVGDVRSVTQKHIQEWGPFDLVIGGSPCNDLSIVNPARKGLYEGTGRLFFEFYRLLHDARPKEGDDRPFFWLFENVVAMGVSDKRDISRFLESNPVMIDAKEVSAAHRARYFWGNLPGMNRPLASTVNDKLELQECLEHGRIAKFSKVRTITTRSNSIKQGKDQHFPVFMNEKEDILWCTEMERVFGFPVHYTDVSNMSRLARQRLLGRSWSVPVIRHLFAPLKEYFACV
# Text: (§1) DNMT3A enzyme inhibition was adapted from the restriction-based fluorescence assay protocol described in Ceccaldi et al.. Briefly, a 5'-labelled biotin oligonucleotide is hybridized to its complementary strand labelled with 6-carboxyfluorescein at the 3′-end into a 384 well microplate (black Optiplates; Perkin Elmer) pre-coated with avidin. The duplex contains a unique CpG site overlapping with a restriction site of a methylation sensitive restriction enzyme. The C-terminal catalytic domain of human DNMT3A (residues 623–908), produced as described, was added in each well (200 ng/well) and mixed with the chemical compounds at desired concentrations and freshly prepared AdoMet (20 µM final concentration) to start the reaction in a total volume of 50 µL. After 1 hour incubation at 37°C each well were washed three times with PBS, 0.05% Tween-20, 500 mM NaCl and three more times with PBST. Specific fluorescent signals were detected with the methylation-sensitive restriction enzyme HpyCH4IV (NEB) as described and measured on a Perkin Elmer Envision detector. The percentage of inhibition is reported. The formula used to calculate the percentage of inhibition is [(X-Y)/X]×100, where X is the signal determined in the absence of the inhibitor and Y is the signal obtained in the presence of the inhibitor. […] The non-linear regression fittings with sigmoidal dose-response (variable slope) were performed with GraphPad Prism 4.03 (GraphPad Software).
# [3] = test system: C-terminal catalytic domain of human DNMT3A (hDNMT3A); assay: as above; type: biochemical; conditions: for selectivity for DNMT3A over G9a inhibition: G9a IC50 vs DNMT3A EC50
# Text: as §1
# U-937 cells = assay: Cell viability by trypan blue exclusion, U-937; type: cell-based, human; conditions: U-937, 48 h; for IC50: Homo sapiens, read-out: IC50 (mean ± SD) cell viability U-937
# Experimental: (§2) U-937 and RAJI cell lines were purchased from Deutsche Sammlung für Mikroorganismen und Zellkulturen (DSZM). Cells were maintained in RPMI 1640 (Lonza) supplemented with 10% fetal calf serum (Lonza) and 1% antibiotic–antimycotic (Lonza). Cells were treated with compounds at the indicated concentrations in exponential growth phase. Proliferation and viability were assessed by trypan blue exclusion analysis at the indicated time points.
# [4] = test system: CMV-luc construct in KG-1 cells; assay: CMV-luc assay (luciferase re-expression from methylated CMV promoter); type: cell-based; conditions: 24 h
# RAJI cells = assay: Cell viability by trypan blue exclusion, RAJI; type: cell-based, human; conditions: 48 h; for IC50: Homo sapiens, Raji, read-out: IC50 (mean ± SD) cell viability RAJI
# Experimental: as §2
# human DNMT1 (hDNMT1) = target: T3, human DNMT1 (hDNMT1) (Homo sapiens, UniProt P26358); assay: DNMT1 assay (radioactive Flashplate methylation assay); type: biochemical; conditions: for inhibition at 100 µM: 100 µM compound, read-out: % inhibition ± SD hDNMT1
# T3 construct: His; made in house
# T3 sequence (P26358 whole entry): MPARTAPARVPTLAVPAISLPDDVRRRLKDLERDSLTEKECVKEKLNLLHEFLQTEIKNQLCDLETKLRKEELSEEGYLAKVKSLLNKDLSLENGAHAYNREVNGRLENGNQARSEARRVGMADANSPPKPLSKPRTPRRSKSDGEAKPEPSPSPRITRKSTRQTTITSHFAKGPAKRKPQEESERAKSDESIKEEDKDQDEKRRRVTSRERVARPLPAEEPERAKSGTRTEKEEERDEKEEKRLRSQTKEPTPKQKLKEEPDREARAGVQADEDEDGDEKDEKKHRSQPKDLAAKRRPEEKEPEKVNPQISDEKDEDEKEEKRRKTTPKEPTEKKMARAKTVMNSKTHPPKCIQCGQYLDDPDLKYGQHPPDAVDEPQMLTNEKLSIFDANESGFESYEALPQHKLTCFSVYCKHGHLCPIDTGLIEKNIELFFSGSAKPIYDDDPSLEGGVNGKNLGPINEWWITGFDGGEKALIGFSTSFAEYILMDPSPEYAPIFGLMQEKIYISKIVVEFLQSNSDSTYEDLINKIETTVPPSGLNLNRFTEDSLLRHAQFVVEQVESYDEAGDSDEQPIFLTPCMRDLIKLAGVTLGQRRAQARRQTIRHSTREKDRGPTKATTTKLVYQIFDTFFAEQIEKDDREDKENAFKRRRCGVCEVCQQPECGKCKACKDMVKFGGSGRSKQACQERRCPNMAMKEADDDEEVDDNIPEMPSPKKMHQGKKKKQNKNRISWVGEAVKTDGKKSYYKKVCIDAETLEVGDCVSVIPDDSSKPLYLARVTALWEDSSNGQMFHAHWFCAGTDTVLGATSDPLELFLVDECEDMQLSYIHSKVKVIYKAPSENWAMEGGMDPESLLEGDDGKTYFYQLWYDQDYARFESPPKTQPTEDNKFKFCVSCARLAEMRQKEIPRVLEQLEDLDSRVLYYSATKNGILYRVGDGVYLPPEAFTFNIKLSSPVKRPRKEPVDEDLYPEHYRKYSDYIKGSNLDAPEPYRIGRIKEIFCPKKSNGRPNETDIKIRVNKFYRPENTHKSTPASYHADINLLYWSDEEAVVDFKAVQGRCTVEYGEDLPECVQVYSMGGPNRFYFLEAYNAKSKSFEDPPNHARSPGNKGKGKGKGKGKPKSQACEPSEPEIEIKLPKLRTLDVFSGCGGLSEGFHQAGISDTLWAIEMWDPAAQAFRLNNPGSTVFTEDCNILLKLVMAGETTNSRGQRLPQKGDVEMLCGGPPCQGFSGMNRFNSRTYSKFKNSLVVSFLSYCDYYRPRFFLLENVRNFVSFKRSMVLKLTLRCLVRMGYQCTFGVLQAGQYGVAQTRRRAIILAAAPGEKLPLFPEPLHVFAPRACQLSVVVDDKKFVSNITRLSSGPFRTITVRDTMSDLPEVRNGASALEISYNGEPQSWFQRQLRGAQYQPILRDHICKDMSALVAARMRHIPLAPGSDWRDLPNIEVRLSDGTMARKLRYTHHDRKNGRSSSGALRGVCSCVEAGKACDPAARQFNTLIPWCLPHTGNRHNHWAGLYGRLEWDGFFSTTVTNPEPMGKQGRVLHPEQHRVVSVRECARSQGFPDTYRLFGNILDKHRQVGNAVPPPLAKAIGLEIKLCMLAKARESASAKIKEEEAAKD
# Experimental: His-DNMT1 (182 kDa, human) was cloned, expressed and purified as described by Lee et al.. The DNMT1 assay was performed according to Gros et al.. Briefly, the reaction was started by addition of 90 nM of DNMT1 on a mix containing the tested compound (up to 1% DMSO), 1 µM of a AdoMet/[methyl-^3H]-AdoMet mix in a ratio of 3-to-1 (isotopic dilution 1*:3) and 0.3 µM of biotinylated DNA duplex in 10 µL final volume. The reaction was incubated at 37°C for 2 h in reaction buffer (20 mM HEPES pH 7.2, 1 mM EDTA, 50 mM KCl, 25 µg/mL BSA). 8 µL are then transferred into a streptavidin-coated Flashplate PLUS (PerkinElmer) containing 190 µL of 20 µM AdoHcy (Sigma-Aldrich) in 50 mM Tris-HCl pH 7.4. The Flashplate was agitated at room temperature for 1 h, washed three times with 200 µL of 0.05% Tween-20 in 50 mM Tris-HCl pH 7.4 and read in 200 µL of 50 mM Tris-HCl pH 7.4 on TopCount NXT (PerkinElmer). Percentages of inhibition were calculated with the same formula as in DNMT3A assay.
Compound,inhibition at 8 µM [1] [%],inhibition at 3.2 µM [2] [%],inhibition at 10 µM [2] [%],inhibition at 32 µM [2] [%],inhibition at 100 µM [2] [%],EC50 [2] [µM],selectivity for DNMT3A over G9a inhibition [3] [fold],IC50 (U-937 cells) [µM],fold-induction of the luciferase signal (CMV-luc) ([4]; 10 µM) [fold],fold-induction of the luciferase signal (CMV-luc) ([4]; 25 µM),fold-induction of the luciferase signal (CMV-luc) ([4]; 50 µM),IC50 (RAJI cells) [µM],inhibition at 100 µM (human DNMT1 (hDNMT1)) [%],selectivity for DNMT3A over DNMT1 ([3]; ratio of EC50 values) [fold],fold-induction of the luciferase signal (CMV-luc) ([4]; 5 µM),inhibition at 10 µM (human DNMT1 (hDNMT1); 10 µM compound) [%],inhibition at 32 µM (human DNMT1 (hDNMT1); 32 µM compound) [%],EC50 (human DNMT1 (hDNMT1); means of at least three experiments) [µM],"antiproliferative potency compared to SGI-1027, fold less efficient (U-937 cells) [fold]","antiproliferative potency compared to SGI-1027, fold more potent (RAJI cells; RAJI) [fold]"
CN1CCCN(c2nc(NC3CCN(Cc4ccccc4)CC3)c3ccccc3n2)CC1 [Compound 4],0,16 ± 4,39 ± 2,55 ± 3,67 ± 3,10 ± 2.5,> 40,16.6 ± 3.8,2.8,12.5 fold,ineffective,21.1 ± 2.5,0,,,,,,,
"c1ccc(CN2CCC(Nc3nc(N4CCCC4)nc4ccccc34)CC2)cc1 [Compound 10, N-(1-benzylpiperidin-4-yl)-2-(pyrrolidin-1-yl)quinazolin-4-amine]",9.2,8 ± 4,21 ± 8,43 ± 6,70 ± 4,35 ± 12,18,14.7 ± 3.8,,not effective,,18.7 ± 4.3,47 ± 1.7,4,2/3,6.5,18,144 ± 35,,
c1ccc(CN2CCC(Nc3nc(N4CCN(c5ccccn5)CC4)nc4ccccc34)CC2)cc1 [Compound 13],3.3,8 ± 1,19 ± 13,52 ± 5,62 ± 3,12 ± 4,> 40,18.8 ± 1.2,,not effective,,19.7 ± 1.4,0,,2/3,,,,,
"c1ccc(CN2CCC(Nc3nc(N4CCN(c5ccccc5)CC4)nc4ccccc34)CC2)cc1 [Compound 14, N-(1-benzylpiperidin-4-yl)-2-(4-phenylpiperazin-1-yl)quinazolin-4-amine]",10,13 ± 2,40 ± 4,54 ± 3,63 ± 4,9 ± 2,> 40,4.4 ± 1.4,,7.5 fold,ineffective,3.4 ± 0.3,0,,2/3,,,,2.6,3
